According to article PMC8903829 (eLife, 2022):
pEC50: −log10 of the molar value. Values joined by “and” are separate entries in the source; they are usually repeats but may differ in a detail not shown here. Identical values can stand only once. Like-named read-outs stand apart in the source and are kept apart here.

Columns and labels:
[1] = tested on: wild-type Sprague Dawley rats; assay: DC-Maximal electroshock seizure assay (DC-MES); assay type: in vivo, rat; settings: for WT rat DC-MES, fraction of animals seizing: sheet Figure 5G, 5H, 5I (rats)
Method: (§1) Phenytoin was formulated in physiologic saline and was administered intraperitoneally (i.p.) using a 25-gauge needle at a dose volume of 10 mL/kg. All compounds were administered 2 hr prior to electrical seizure induction for all seizure models employed in this study.
(§2) The maximal electroshock seizure (MES) assay has been extensively used in the search for anticonvulsant substances ([Löscher et al., 1991]; [Piredda et al., 1985]; [White et al., 1995]). The MES assay is sensitive to nonselective NaV inhibitors. It is considered a model for generalized tonic-clonic (GTC) seizures and provides an assessment of seizure spread. Briefly, an electroshock of direct current (DC) was delivered by corneal electrodes (Electro Convulsive Therapy Unit 57,800 from Ugo Basile). The parameters of stimulation were different between mice and rats. In CF1 mice aged 9–12 weeks, a direct current of 50 mA (60 Hz) was delivered for 0.2 s (pulse width of 0.5ms), whereas in Sprague Dawley (SD) rats aged 5–6 weeks, a direct current of 150 mA (60 Hz) was delivered for 0.3 s (pulse width of 0.5ms). Immediately prior to the electroshock, the animals’ eyes were anesthetized with a drop of Alcaine (0.5% proparacaine hydrochloride).
(§3) An animal was considered protected in the assay in the absence of a GTC with hindlimb extension and is then scored ‘0’. An animal displaying GTC with hindlimb extension was considered not protected and is then scored ‘1’. The experimenter scoring the seizure behavior was blinded to the treatment.

[2] = tested on: Sprague Dawley rats; assay: Observation of potential adverse behavior (behavioral signs) in the rat DC-MES studies; assay type: in vivo; settings: rat
Method: Animals were observed by the scientist(s) responsible for dosing for the first 30 min after dosing for and again at the time of assay (2 hr post dose) for signs of abnormal behavior.

[3] = Bioanalytical assessment of plasma and brain concentrations after 6 Hz assay; assay type: in vivo, mouse; settings: for Mean [Plasma] / Mean [Brain] / concentration at 2 hr: Scn8a mice; for concentration at 2 hr: mouse, po
Method: Approximately 0.5 mL of blood was collected from each mouse at the end of the assay via cardiac puncture under deep anesthesia. The blood samples were collected in a syringe and transferred to tubes containing EDTA. Blood was stored at 4 °C until centrifuged within 30 min of collection. Plasma was harvested and placed on dry ice and stored in a freezer set to maintain a temperature of –70°C to –80°C until analysis. Brains were harvested immediately after blood collection and placed on dry ice prior to storage in a freezer set to maintain a temperature of –70°C to –80°C until analysis.
Extraction of plasma samples was carried out by protein precipitation using acetonitrile. Plasma samples (50 µL) were mixed with 50 µL of internal standard (IS) solution in water followed by addition of 10 µL of concentrated ortho-phosphoric acid and 200 µL of acetonitrile. Samples were vortexed for 30 seconds, centrifuged at 13,000 rpm for 20 min, decanted in to a 96-well plate, and further centrifuged at 4000 rpm for 20 min. The samples were analyzed by UHPLC-ESI-MS/MS as described below.
Prior to extraction, pre-weighed whole brains were homogenized in 1:1 acetonitrile/water (v/v) (4 mL per mouse brain) using an IKA T18 ULTRA-TURRAX Homogenizer at the setting of 4 for approximately 2 min. The homogenate was centrifuged at 13,000 rpm for 20 min and 50 µL of the supernatant were treated exactly as described above for plasma samples. […]
Samples were analyzed by UHPLC-ESI MS/MS using a TQ-5500 Sciex triple quadrupole mass spectrometer equipped with a Shimadzu Nexera UHPLC pump and auto-sampler system using an ACE C18 PFP, 2.50 × 50 mm, 1.7 µm particle size column and gradient elution consisting of solvent A (0.1% formic acid in water) and solvent B (0.1% formic acid in acetonitrile) starting at 20% B from 0 min to 0.4 min and then increased to 100% B from 0.4 min to 0.6 min. At 2.0 min, the mobile phase composition was switched back to […] for 1 min. The flow rate used throughout the experiment was […]. […] The UHPLC-ESI MS/MS system was controlled by Analyst 1.6.
Sample concentrations were determined using a linear calibration function, weighted 1 /X, generated by the regression of analyte to IS peak area ratios in the standard samples to their respective concentrations. Acceptance criteria for the analytical run required that the back calculated values of the standards and the QC samples fell within ±20% of their nominal values, except for the lowest standard or lower limit of quantitation (LLOQ), for which the acceptance criterion was ±25%. At least 6 out of 12 standard points had to show back-calculated values within ±20% of their nominal concentrations for the calibration to be accepted. At least three QC samples, one at each level, had to show back-calculated values within ±20% of their nominal concentrations for the whole sample batch to be valid.

[4] = tested on: wild-type mice (CF-1); assay: DC-Maximal electroshock seizure assay (DC-MES); assay type: in vivo, mouse; settings: for WT mouse DCMES Chronic, Fraction of animals seizing: day 7, 2 h after 13th dose; for WT mouse DCMES acute, Fraction of animals seizing: 2 h
Method: as §1, §2, §3

[5] = Bioanalytical assessment of plasma and brain concentrations after rat DC-MES assay; assay type: in vivo; settings: sheet Figure 5G, 5H, 5I (rats); for concentration at 2 h: rat, po
[6] = 1 mg/kg PO single dose, 2 hr, 1 mg/kg
[7] = 6 mg/kg PO every 12 hr, day 7, 2 hr after 13th dose, 6 mg/kg
[8] = 100 mg/kg PO single dose, after assay 2 hr post dose, 100 mg/kg

`Cc1cc(S(=O)(=O)Nc2cscn2)c(F)cc1N(C)[C@H]1CCN(Cc2ccccc2)C1` [NBI-921352] gave a pEC50 ([1]; WT rat DC-MES (oral; phenytoin i.p.), read-out: plasma EC50) of 6.82, a pEC50 ([1]; WT rat DC-MES, 2 hr post dose (oral; phenytoin i.p.), read-out: brain EC50) of 7.43 and an ED50 ([1]; WT rat DC-MES, oral, 2 hr, read-out: ED50, prevention of GTC with hindlimb extension) of 3.7 mg/kg. The “WT rat DC-MES, fraction of animals seizing” value (from here on “WT rat DC-MES, fraction”) ([1]; 1 mg/kg PO every 12 hr, day 7, 2 hr after 13th dose) was 0.4286, the “WT rat DC-MES, fraction” value [1, 6] was 0.75 and 1 and the “WT rat DC-MES, fraction” value ([1]; 3 mg/kg PO every 12 hr, day 7, 2 hr after 13th dose) was 0.25. The “WT rat DC-MES, fraction” value ([1]; 3 mg/kg PO single dose, 2 hr, 3 mg/kg) was 0.6 and 0.5714 and 0.4, the “WT rat DC-MES, fraction” value ([1]; 10 mg/kg PO single dose, 2 hr) was 0.1429 and the “WT rat DC-MES, fraction” value ([1]; 30 mg/kg PO single dose, 2 hr) was 0. The “minimal plasma concentration provoking behavioral signs (BSC)” value [2] was 71 µM, the “Mean [Plasma]” value ([3]; 3 mg/kg PO single dose, after assay 2 hr post dose, 3 mg/kg) was 0.003985 µM and the “Mean [Brain]” value [3, 7] was 0.02201 µM and 0.01923 µM. For the same compound, the “Mean [Plasma]” value [3, 7] was 0.01663 µM and 0.02029 µM, the “Mean [Plasma]” value ([3]; 10 mg/kg PO single dose, after assay 2 hr post dose, 10 mg/kg) was 0.01541 µM and the “Mean [Brain]” value ([3]; 30 mg/kg PO single dose, after assay 2 hr post dose, 30 mg/kg) was 0.133 µM and 0.1224 µM and 0.09287 µM and 0.1253 µM. The “Mean [Brain]” value [3, 8] was 0.3467 µM, the “Mean [Plasma]” value [3, 8] was 0.5385 µM and the concentration at 2 hr ([3]; Scn8a^N1768D/+ (heterozygous gain-of-function knock-in line), brain, 30 mg/kg, 30 mg/kg PO single dose, after assay 2 hr post dose, read-out: Mean [Brain]) was 96.6 nM. For the same compound, the concentration at 2 hr ([3]; Scn8a^N1768D/+ (heterozygous gain-of-function knock-in line), brain, 100 mg/kg, 100 mg/kg PO single dose, after assay 2 hr post dose, read-out: Mean [Brain]) was 357 nM, the concentration at 2 hr ([3]; Scn8a^N1768D/+ (heterozygous gain-of-function knock-in line), plasma, 3 mg/kg, 3 mg/kg PO single dose, after assay 2 hr post dose, read-out: Mean [Plasma]) was 3.45 nM and the concentration at 2 hr ([3]; Scn8a^N1768D/+ (heterozygous gain-of-function knock-in line), plasma, 10 mg/kg, 10 mg/kg PO single dose, after assay 2 hr post dose, read-out: Mean [Plasma]) was 9.56 nM. For the same compound, the concentration at 2 hr ([3]; Scn8a^N1768D/+ (heterozygous gain-of-function knock-in line), plasma, 100 mg/kg, 100 mg/kg PO single dose, after assay 2 hr post dose, read-out: Mean [Plasma]) was 717 nM, the concentration at 2 hr ([3]; Scn8a^N1768D/+, brain, 2 mg/kg, 2 mg/kg PO every 12 hr, day 7, 2 hr after 13th dose, read-out: Mean [Brain]) was 10.5 nM and the concentration at 2 hr ([3]; Scn8a^N1768D/+, brain, 2 mg/kg, 2 mg/kg PO single dose, after assay 2 hr post dose, read-out: Mean [Brain]) was 8.02 nM. It also gave a concentration at 2 hr ([3]; Scn8a^N1768D/+, brain, 6 mg/kg, 6 mg/kg PO every 12 hr, day 7, 2 hr after 13th dose, read-out: Mean [Brain]) of 28.8 nM, a concentration at 2 hr ([3]; Scn8a^N1768D/+, brain, 200 mg/kg, 200 mg/kg PO single dose, after assay 2 hr post dose, read-out: Mean [Brain]) of 3850 nM and a concentration at 2 hr ([3]; Scn8a^N1768D/+, brain, 300 mg/kg, 300 mg/kg PO single dose, after assay 2 hr post dose, read-out: Mean [Brain]) of 6940 nM. It also gave a concentration at 2 hr ([3]; Scn8a^N1768D/+, plasma, 2 mg/kg, 2 mg/kg PO every 12 hr, day 7, 2 hr after 13th dose, read-out: Mean [Plasma]) of 2.95 nM, a concentration at 2 hr ([3]; Scn8a^N1768D/+, plasma, 2 mg/kg, 2 mg/kg PO single dose, after assay 2 hr post dose, read-out: Mean [Plasma]) of 1.08 nM and a concentration at 2 hr ([3]; Scn8a^N1768D/+, plasma, 6 mg/kg, 6 mg/kg PO every 12 hr, day 7, 2 hr after 13th dose, read-out: Mean [Plasma]) of 13.2 nM. For the same compound, the concentration at 2 hr ([3]; Scn8a^N1768D/+, plasma, 200 mg/kg, 200 mg/kg PO single dose, after assay 2 hr post dose, read-out: Mean [Plasma]) was 12600 nM, the concentration at 2 hr ([3]; Scn8a^N1768D/+, plasma, 300 mg/kg, 300 mg/kg PO single dose, after assay 2 hr post dose, read-out: Mean [Plasma]) was 31500 nM and the “accumulation in the plasma or tissue on repeated dosing” value ([3]; every 12 hr for 13 doses, mice and rats) was “did not appreciably accumulate”. The “WT mouse DCMES Chronic, Fraction of animals seizing” value (from here on “WT mouse DCMES Chronic, Fraction”) ([4]; 3 mg/kg PO every 12 hr) was 0.4 and 0.25, the “WT mouse DCMES acute, Fraction of animals seizing” value (shortened to “WT mouse DCMES acute, Fraction”) ([4]; 3 mg/kg PO single dose) was 0.8 and 0.75 and 0.7143 and the “WT mouse DCMES Chronic, Fraction” value ([4]; 5 mg/kg PO every 12 hr) was 0.25 and 0.2857. For the same compound, the “WT mouse DCMES acute, Fraction” value ([4]; 5 mg/kg PO single dose) was 0.625 and 0.7143, the “WT mouse DCMES Chronic, Fraction” value ([4]; 10 mg/kg PO every 12 hr) was 0.2 and the “WT mouse DCMES acute, Fraction” value ([4]; 10 mg/kg PO single dose) was 0.6 and 0.4286 and 0.6667. For the same compound, the “WT mouse DCMES acute, Fraction” value ([4]; 30 mg/kg PO single dose) was 0.3333 and 0.4 and 0.4286, the “WT mouse DCMES acute, Fraction” value ([4]; 100 mg/kg PO single dose) was 0.2857 and the “WT mouse DCMES acute, Fraction” value ([4]; 200 mg/kg PO single dose) was 0.1667. The pEC50 ([4]; WT mouse DC-MES, 2 hr post dose (oral; phenytoin i.p.), read-out: brain EC50) was 6.70, the ED50 ([4]; WT mouse DC-MES, oral, 2 hr, read-out: ED50, prevention of GTC with hindlimb extension) was 23 mg/kg and the pEC50 ([4]; WT mouse DC-MES, read-out: plasma EC50) was 6.28. For the same compound, the concentration at 2 h ([5]; brain, 1 mg/kg, 1 mg/kg PO every 12 hr, day 7, 2 hr after 13th dose, read-out: Mean [Brain]) was 12.5 nM, the concentration at 2 h ([5]; brain, 1 mg/kg, 1 mg/kg PO single dose, 2 hr, read-out: Mean [Brain]) was 16.6 nM and the concentration at 2 h ([5]; brain, 3 mg/kg, 3 mg/kg PO every 12 hr, day 7, 2 hr after 13th dose, read-out: Mean [Brain]) was 39.6 nM. The concentration at 2 h ([5]; brain, 10 mg/kg, 10 mg/kg PO single dose, 2 hr, read-out: Mean [Brain]) was 161 nM, the concentration at 2 h ([5]; brain, 30 mg/kg, 30 mg/kg PO single dose, 2 hr, read-out: Mean [Brain]) was 213 nM and the concentration at 2 h ([5]; plasma, 1 mg/kg, 1 mg/kg PO every 12 hr, day 7, 2 hr after 13th dose, read-out: Mean [Plasma]) was 33.9 nM. It also gave a concentration at 2 h ([5]; plasma, 3 mg/kg, 3 mg/kg PO every 12 hr, day 7, 2 hr after 13th dose, read-out: Mean [Plasma]) of 123 nM, a concentration at 2 h ([5]; plasma, 10 mg/kg, 10 mg/kg PO single dose, 2 hr, read-out: Mean [Plasma]) of 1150 nM and a concentration at 2 h ([5]; plasma, 30 mg/kg, 30 mg/kg PO single dose, 2 hr, read-out: Mean [Plasma]) of 2330 nM. For the same compound, the “Mean [Brain]” value [5, 6] was 0.02047 µM and 0.01429 µM and 0.01541 µM.
